The series can be described thus: Cassette dosing and serum analysis for determination of bioavailability. Format: in vivo, rat. Conditions: male Sprague Dawley rats, oral cassette of 6 compounds as sodium salts, total dose 10 mg/kg, plasma at 4, 8 and 12 h, linear trapezoidal rule. The protocol:
Cassette Dosing and Serum Analysis for Determination of Bioavailability
The cassette included 5 test articles and a standard compound, for a total dose of 10 mg/kg. Each compound/test article was converted to the sodium salt with equimolar 1 N NaOH and dissolved in water at 2 mg/mL. The cassette was prepared by mixing equal volumes of each of the six solutions. The cassette dosing solution was mixed well and then the pH was adjusted to 7.5–9. The dosing solution was prepared the day before the study and stirred overnight at room temperature.
Male Sprague Dawley (SD) rats from Charles River Laboratories, 6–8 weeks old were used in this screen. Rats were quarantined for at least one day and had continuous access to food and water. On the night before the administration of the cassette, the rats were fasted for approximately 16 h.
Four SD rats were assigned in each cassette. A single dose of the dosing solution was administered orally to each rat. The dosing volume (5 mL/kg) and time were recorded and rats were fed 2 h after dosing.
Blood samples were collected via cardiac puncture at the following time points: 4 h, 8 h and 12 h. Immediately prior to blood collection, rats were anesthetized with CO2 gas within 10–20 seconds. After the 12-h samples were collected, the rats were euthanized via CO2 asphyxiation followed by cervical dislocation.
Blood samples were kept in heparinized microtainer tubes under sub-ambient temperature (4° C.) before they were processed. Blood samples were centrifuged (10000 rpm for 5 minutes) and plasma samples were removed and stored in a −20° C. freezer until analyzed for drug levels. Drug levels in the plasma were analyzed using the following protocol for direct plasma precipitation.
The in vivo plasma samples were prepared in a 1.5 mL 96-well plate, by adding, in order, 100 μL of the test plasma, 150 μL of methanol, followed by vortexing for 10–20 seconds. 150 μL of 0.05 ng/μL of an Internal Standard in acetonitrile were added and vortexed for 30 seconds.
The standard curve samples were prepared in a 1.5 mL 96-well plate, by adding, in order, 100 μL of control mouse plasma, followed by 150 μL of methanol and vortexing for 10–20 seconds. 150 μL of 0.05 ng/μL of an Internal Standard in acetonitrile were added and vortexed for 30 seconds. The samples were spiked with 0–200 ng (10 concentrations) of the compound of interest in 50% methanol to obtain a standard curve range of 0.5 ng/mL–2,000 ng/mL. Again, the sample was vortexed for 30 seconds.
The samples were then spun for 20–30 minutes at 3000 rpm in an Eppendorf microfuge before 80–90% of supernatant was transferred into a clean 96-well plate. The organic solvent was then evaporated until the samples were dry (under N2 at 40° C./30–60 min (ZymarkTurbovap)).
The residue was then dissolved in […] mobile phase (50% CH3OH/0.1% TFA). LC/MS/MS was then run using a PE-Sciex API-3000 triple quadurpole mass spectrometer (SN0749707), Perkin-Elmer, Series200auto-sampler, and shimadzu 10A pump. Acquisition was done with PE-Sciex Analyst (v1.1) and data analysis and quantification were accomplished using PE-Sciex Analyst (v1.1). A 5–50 μL sample volume was injected onto a reverse phase ThermoHypersil DASH-18 column (Keystone 2.0×20 mm, 5 μm, PN: 8823025-701) using a mobile phase of 25% CH3OH, 0.1% TFA-100% CH3OH, 0.1% TFA. The run time was about 8 minutes at a flow rate of about 300 μL/minutes.
The Area Under the Curve (AUC) was calculated using the linear trapezoidal rule from t=0 to the last sampling time tx (see Handbook of Basic Pharmacokinetics, Wolfgang A. Ritschel and Gregory L. Kearns, 5th ed, 1999). AUC^0−tx=S((Cn+Cn+1)/2))·(tn+1−tn)[(μg/mL)h]
Consider `CCN(CC)c1ncc(N(CC)S(=O)(=O)c2ccc(Cl)cc2)c(N[C@@H](Cc2ccc(OC(=O)N3CCCC3)cc2)C(=O)O)n1` [Example 1, N-(2-[N′,N′-diethylamino]-5-[N″-(4-chlorophenylsulfonyl)-N″-ethylamino]pyrimidin-4-yl)-4′-(pyrrolidin-1-ylcarbonyloxy)-L-phenylalanine], for which the “AUC (average AUC 0→12 h)” value is 14.798 (μg/mL)h. `CCN(CC)c1ncc(N(CC)S(=O)(=O)c2ccc(F)cc2)c(N[C@@H](Cc2ccc(OC(=O)N3CCCC3)cc2)C(=O)O)n1` [Example 2, N-(2-[N′,N′-diethylamino]-5-[N″-(4-fluorophenylsulfonyl)-N″-ethylamino]pyrimidin-4-yl)-4′-(pyrrolidin 1-ylcarbonyloxy)-L-phenylalanine]: the “AUC (average AUC 0→12 h)” value is on record as 15.971 (μg/mL)h. On to `CCN(CC)c1ncc(N(C)S(=O)(=O)c2ccc(F)cc2)c(N[C@@H](Cc2ccc(OC(=O)N3CCCC3)cc2)C(=O)O)n1` [Example 3, N-(2-[N′,N′-diethylamino]-5-[N″-(4-fluorophenylsulfonyl)-N″-methylamino]pyrimidin-4-yl)-4′-(pyrrolidin-1-ylcarbonyloxy)-L-phenylalanine], for which the “AUC (average AUC 0→12 h)” value is reported as 22.271 (μg/mL)h. For the compound `CCN(CC)c1ncc(N(C)S(=O)(=O)c2ccc(Cl)cc2)c(N[C@@H](Cc2ccc(OC(=O)N3CCCC3)cc2)C(=O)O)n1` [Example 4], the “AUC (average AUC 0→12 h)” value is given as 13.829 (μg/mL)h. For `CCN(CC)c1ncc(N(C)S(=O)(=O)c2ccc(F)cc2)c(N[C@@H](Cc2ccc(OC(=O)N3CCCCC3)cc2)C(=O)O)n1` [Example 5, N-(2-[N′,N′-diethylamino]-5-[N″-(4-fluorophenylsulfonyl)-N″-methylamino]pyrimidin-4-yl)-4′-(piperidin-1-ylcarbonyloxy)-L-phenylalanine], the “AUC (average AUC 0→12 h)” value was 2.1654 (μg/mL)h. Next, `CCN(CC)c1ncc(N(CC)S(=O)(=O)c2ccc(F)cc2)c(N[C@@H](Cc2ccc(OC(=O)N3CCCCC3)cc2)C(=O)O)n1` [Example 6, N-(2-[N′,N′-diethylamino]-5-[N″-(4-fluorophenylsulfonyl)-N″-ethylamino]pyrimidin-4-yl)-4′-(piperidin-1-ylcarbonyloxy)-L-phenylalanine]: 0.5125 (μg/mL)h; `CCN(CC)c1ncc(N(CC)S(=O)(=O)c2ccc(F)cc2)c(N[C@@H](Cc2ccc(OC(=O)N3CCC3)cc2)C(=O)O)n1` [Example 7, N-(2-[N′,N′-diethylamino]-5-[N″-(4-fluorophenylsulfonyl)-N″-ethylamino]pyrimidin-4-yl)-4-(azetidin-1-ylcarbonyloxy)-L-phenylalanine]: 0.8979 (μg/mL)h; `CCN(CC)c1ncc(N(C)S(=O)(=O)c2ccc(F)cc2)c(N[C@@H](Cc2ccc(OC(=O)N3CCC3)cc2)C(=O)O)n1` [Example 8, N-(2-[N′,N′-diethylamino]-5-[N″-(4-fluorophenylsulfonyl)-N″-methylamino]pyrimidin-4-yl)-4′-(azetidin-1-ylcarbonyloxy)-L-phenylalanine]: 2.4082 (μg/mL)h. Next, `CCN(CC)c1ncc(N(C)S(=O)(=O)c2ccc(Cl)cc2)c(N[C@@H](Cc2ccc(OC(=O)N3CCC3)cc2)C(=O)O)n1` [Example 9, N-(2-[N′,N′-diethylamino]-5-[N″-(4-chlorophenylsulfonyl)-N″-methylamino]pyrimidin-4-yl)-4′-(azetidin-1-ylcarbonyloxy)-L-phenylalanine]: 2.0774 (μg/mL)h; `CCN(CC)c1ncc(N(CC)S(=O)(=O)c2ccc(Cl)cc2)c(N[C@@H](Cc2ccc(OC(=O)N3CCC3)cc2)C(=O)O)n1` [Example 10, N-(2-[N′,N′-diethylamino]-5-[N″-(4-chlorophenylsulfonyl)-N″-ethylamino]pyrimidin-4-yl)-4′-(azetidin-1-ylcarbonyloxy)-L-phenylalanine]: 2.1113 (μg/mL)h. For the compound `CCN(CC)c1ncc(N(C)S(=O)(=O)c2ccc(F)cc2F)c(N[C@@H](Cc2ccc(OC(=O)N3CCCC3)cc2)C(=O)O)n1` [Example 11, N-(2-[N′,N′-diethylamino]-5-[N″-(2,4-difluorophenylsulfonyl)-N″-methylamino]pyrimidin-4-yl)-4′-(pyrrolidin-1-ylcarbonyloxy)-L-phenylalanine], the “AUC (average AUC 0→12 h)” value is reported as 14.818 (μg/mL)h. For `CCN(CC)c1ncc(N(CC)S(=O)(=O)c2ccc(F)cc2F)c(N[C@@H](Cc2ccc(OC(=O)N3CCCC3)cc2)C(=O)O)n1` [Example 12, N-(2-[N′,N′-diethylamino]-5-[N″-(2,4-difluorophenylsulfonyl)-N″-ethylamino]pyrimidin-4-yl)-4′-(pyrrolidin-1-ylcarbonyloxy)-L-phenylalanine] the value was 4.7816 (μg/mL)h; for `CCN(CC)c1ncc(N(C)S(=O)(=O)c2ccc(F)cc2F)c(N[C@@H](Cc2ccc(OC(=O)N3CCC3)cc2)C(=O)O)n1` [Example 13, N-(2-[N′,N′-diethylamino]-5-[N″-(2,4-difluorophenylsulfonyl)-N″-methylamino]pyrimidin-4-yl)-4′-(azetidin-1-ylcarbonyloxy)-L-phenylalanine], 1.283 (μg/mL)h. Turning to `CCN(CC)c1ncc(N(CC)S(=O)(=O)c2ccc(F)cc2F)c(N[C@@H](Cc2ccc(OC(=O)N3CCC3)cc2)C(=O)O)n1` [Example 14, N-(2-[N′N′-diethylamino]-5-[N″-(2,4-difluorophenylsulfonyl)-N″ethylamino]pyrimidin-4-yl)-4′-(azetidin-1-ylcarbonyloxy)-L-phenylalanine], the “AUC (average AUC 0→12 h)” value was 0.3566 (μg/mL)h. For `C#CCN(c1cnc(N(CC)CC)nc1N[C@@H](Cc1ccc(OC(=O)N2CCCC2)cc1)C(=O)O)S(=O)(=O)c1ccc(F)cc1` [Example 15, N-(2-[N′,N′-diethylamino]-5-[N″-(4-fluorophenylsulfonyl)-N″-propargylamino]pyrimidin4-yl)-4′-(pyrrolidin-1-ylcarbonyloxy)-L-phenylalanine], the “AUC (average AUC 0→12 h)” value is listed as 90.317 (μg/mL)h. For `C#CCN(c1cnc(N(CC)CC)nc1N[C@@H](Cc1ccc(OC(=O)N2CCCC2)cc1)C(=O)O)S(=O)(=O)c1ccc(F)cc1F` [Example 16, N-(2-[N′,N′-diethylamino]-5-[N″-(2,4-difluorophenylsulfonyl)-N″-propargylamino]pyrimidin-4-yl)-4′-(pyrrolidin-1-ylcarbonyloxy)-L-phenylalanine] the value was 23.808 (μg/mL)h; for `C#CCN(c1cnc(N(CC)CC)nc1N[C@@H](Cc1ccc(OC(=O)N2CCC2)cc1)C(=O)O)S(=O)(=O)c1ccc(F)cc1F` [Example 17, N-(2-[N′,N′-diethylamino]-5-[N″-(2,4-difluorophenylsulfonyl)-N″-propargylamino]pyrimidin-4-yl)-4′-(azetidin-1-ylcarbonyloxy)-L-phenylalanine], 0.8628 (μg/mL)h; for `C#CCN(c1cnc(N(CC)CC)nc1N[C@@H](Cc1ccc(OC(=O)N2CCC2)cc1)C(=O)O)S(=O)(=O)c1ccc(F)cc1` [Example 18, N-(2-[N′,N′-diethylamino]-5-[N″-(4-fluorophenylsulfonyl)-N″-propargylamino]pyrimidin-4-yl)-4′(azetidin-1-ylcarbonyloxy)-L-phenylalanine], 4.7528 (μg/mL)h.
